Reference: the METLIN SMRT retention time set (Domingo-Almenara et al. 2019)

Test: gradient 5% acetonitrile 3 min, to 50% in 2 min, to 85% in 15 min, held 3 min, 100 µL/min
Conditions: column: Zorbax Extend-C18 2.1 x 50 mm; eluents: water / acetonitrile, 0.1% formic acid
Outline: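 In both positive and negative ionization mode, a quadrupole time-of-flight mass spectrometer coupled to HPLC analyzed pure standards run in mixtures of ~100 molecules. The Zorbax Extend-C18 column (2.1 × 50 mm, 1.8 μm) was operated at 100 μL/min with water and acetonitrile, each containing 0.1% formic acid. The dead volume was 40 μL and the dwell volume 900 μL. Retention time came from adduct peaks that were computationally picked and individually inspected by hand.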

Work on `CC(NC(=O)CN1C(=O)C2CCCCN2c2ccc(S(=O)(=O)N(C)C)cc21)c1ccccc1` (stereo not drawn) yielded an RP-LC retention time of 902 s.

Molecule `Cn1c(=O)c(=O)n(C)c2cc(Oc3ccccc3)c(NC(=O)C3CCCCC3)cc21` has an RP-LC retention time of 870 s.

`CC(C)(C)CC(C)(C)NCC(O)COC(C)(C)C` (stereo not drawn) showed an RP-LC retention time of 588 s.

Work on `CC(C)Cn1c(=O)c2cc(C(=O)NCCC3CCN(C(C)C)CC3)nn2c2ccccc21` yielded an RP-LC retention time of 694 s.

Molecule `Cn1c(=O)sc2cc(S(=O)(=O)N3CCC(C(=O)N4CCC5(CC4)OCCO5)CC3)ccc21` has an RP-LC retention time of 709 s.

`CCOC(=O)C1=C(C)NC2=C(C(=O)C(C(=O)OC)C(C)C2)C1c1ccccc1OCC` (stereo not drawn) showed an RP-LC retention time of 906 s.

For `Cc1oc(-c2[nH]ncc2C(=O)N2CCCC2)cc1S(=O)(=O)Nc1ccc(Cl)cc1`, the RP-LC retention time was 739 s.

With `CNC(=O)Oc1ccc2c(c1)[C@]1(C)CCN(C)C1N2C` (stereo partly drawn) the RP-LC retention time was 594 s.

`CN1c2cc(F)ccc2C(=O)NC12CCN(C(=O)Cc1ccc(Cl)cc1)CC2` gave an RP-LC retention time of 919 s.

Molecule `CCc1cc(C(=O)Nc2ccccc2C)nc2ccnn12` has an RP-LC retention time of 1010 s.

Work on `CCOC(=O)c1c(C)[nH]c(CCC(=O)NCCN2CCCCCC2)c1C` yielded an RP-LC retention time of 621 s.

In the case of `Cc1ccc2[nH]cc(CCNC(=O)CCn3c(=O)c(C)nc4ccccc43)c2c1`, the RP-LC retention time is reported as 781 s.

In the case of `CCC(C)C(=O)NC1CCN(C2=NS(=O)(=O)C(c3ccc(C(C)C)cc3)=C2C)CC1` (stereo not drawn), the RP-LC retention time is reported as 962 s.

Molecule `Cc1ccccc1Nc1c(-c2cc(Br)ccc2F)nc2ccc(Cl)cn12` has an RP-LC retention time of 1100 s.

For `CCn1cc(-c2ccc(F)cc2)cc1C(=O)NCC1CCCO1` (stereo not drawn), the RP-LC retention time was 909 s.

Work on `CCCNc1cc(N2CCC(CCC(=O)NCc3cc(F)cc(F)c3)CC2)ncn1` yielded an RP-LC retention time of 704 s.

With `COc1nc2ccccc2nc1N1CCCC(C(=O)NC2CCCCC2C)C1` (stereo not drawn) the RP-LC retention time was 1090 s.

`CCC(C(=O)NC(C)C(=O)N1CCCCC1)n1c2ccccc2c2cnn(C)c(=O)c21` (stereo not drawn) gave an RP-LC retention time of 670 s.

`CCCC(=O)NCCn1c(=O)n(Cc2cccc(C)c2)c2cccnc21` showed an RP-LC retention time of 759 s.

Molecule `CC(C)n1cnc(S(=O)(=O)N2CCC(C(=O)N3CCc4ccccc4C3)CC2)c1` has an RP-LC retention time of 765 s.

With `CCN(CC)C(=O)C1CCCN(c2ncnc3c2cnn3-c2ccccc2)C1` (stereo not drawn) the RP-LC retention time was 881 s.

For `Cc1ccc2[nH]c(=O)c(CCC(=O)N3CCCN(c4ncccn4)CC3)cc2c1`, the RP-LC retention time was 654 s.

Molecule `C=CCNC(=O)CCc1c(-c2ccc(Cl)cc2)nc2ccccn12` has an RP-LC retention time of 615 s.

For `O=S(=O)(c1cccc(F)c1)N1CCC(c2noc(-c3ccc(F)cc3)n2)CC1`, the RP-LC retention time was 1110 s.

`Cc1nc(-c2cc(S(=O)(=O)Nc3ccc(F)cc3F)c(C)s2)sc1C` showed an RP-LC retention time of 1090 s.

`C=CCN1C(=O)COc2ccc(-c3nc(NC(=O)COC)sc3C)cc21` showed an RP-LC retention time of 836 s.

For `O=C(c1ccc(Cl)c(Cl)c1)N1CCN(c2nc(-c3ccccc3)cs2)CC1`, the RP-LC retention time was 1210 s.

`CCCC(=O)NC1(c2nc(-c3ccncc3)no2)CCCCC1` showed an RP-LC retention time of 747 s.

`Cc1nc(NC(=O)c2ccccc2)n[nH]1` showed an RP-LC retention time of 583 s.

With `COC(=O)c1ccc2c(=O)n(-c3ccc(OC)c(OC)c3)c(N3CCOCC3)nc2c1` the RP-LC retention time was 800 s.

With `COc1ccc(N2CCN(C(=S)Nc3ccc4nc(N5CCN(C)CC5)cc(C)c4c3)CC2)cc1` the RP-LC retention time was 580 s.

Work on `Cc1cccc(NC(=O)NC2CCN(C(=O)N3C[C@@H]4C[C@H](C3)[C@H]3CCCC(=O)N3C4)CC2)c1` yielded an RP-LC retention time of 669 s.

With `CCc1ccc(NC(=O)N2CCC3(CC2)NC(=O)c2cc(C)ccc2N3C)cc1` the RP-LC retention time was 874 s.

Work on `Cc1noc([C@]23CN(CCc4ccccc4)CC[C@H]2CN(CCc2ccccc2)C3)n1` yielded an RP-LC retention time of 573 s.

Work on `O=C(Nc1ccc(Cl)cc1C(=O)c1ccccc1)c1ccc(N2C(=O)CCC2=O)cc1` yielded an RP-LC retention time of 896 s.

With `Cc1nn(CC(=O)NCCCN2CCc3ccccc3C2)c(=O)c2noc(C)c12` the RP-LC retention time was 597 s.

Work on `CCOC(=O)c1noc2nc(C)nc(N3CCN(c4cccc(Cl)c4)CC3)c12` yielded an RP-LC retention time of 1220 s.

`CC1(C)CCC[C@@](C)([C@H]2CC[C@]3(C)[C@@H]2[C@H](O)C[C@@H]2[C@@]4(C)CC[C@H](O)C(C)(C)[C@@H]4[C@@H](O)C[C@]23C)O1` showed an RP-LC retention time of 1150 s.

Molecule `COC(=O)c1ccc2c(=O)n(Cc3ccc(F)cc3)c(N3CCN(c4ccccn4)CC3)nc2c1` has an RP-LC retention time of 772 s.

`COCCO[C@H]1C(=O)N(C2CCN(S(=O)(=O)c3cn(C)cn3)CC2)[C@H]1c1ccncc1` gave an RP-LC retention time of 556 s.

Work on `O=C(c1cn(-c2ccc(S(=O)(=O)N3CCOCC3)cc2)cn1)N1CCN(c2ccccn2)CC1` yielded an RP-LC retention time of 598 s.

For `CSc1ccc(-c2nc3ncccn3c2Nc2cc(C)ccc2C)cc1`, the RP-LC retention time was 864 s.

With `CCc1nc2cc(-c3noc(-c4cccnc4SC)n3)ccc2o1` the RP-LC retention time was 1220 s.

For `CCc1ccc(NC(=O)Cn2c(N3CCOCC3)nc(CC)cc2=O)cc1`, the RP-LC retention time was 747 s.

Molecule `CCn1nc(CNC(=O)C2CCC2)c2ccccc21` has an RP-LC retention time of 748 s.

Molecule `CN(C)CCn1nnc2cc(-c3noc(-c4ccccc4Br)n3)ccc21` has an RP-LC retention time of 681 s.

In the case of `CCCS(=O)(=O)N1CCC2(CC1)C(OC)CN2c1cccc(F)c1` (stereo not drawn), the RP-LC retention time is reported as 1040 s.

Molecule `COC(=O)C(C)n1nc2nc(Nc3cc(C)cc(C)c3)cc(C)n2c1=O` (stereo not drawn) has an RP-LC retention time of 1160 s.

`CCCc1nnc(C(=O)Nc2cccc(C(=O)NCCc3c[nH]c4ccc(Cl)cc34)c2)s1` showed an RP-LC retention time of 981 s.

`O=C(Cn1ccc2sccc2c1=O)Nc1ccc(Br)cc1F` gave an RP-LC retention time of 832 s.

Work on `Cc1csc(-c2ccc(N3CCN(C(=O)COc4ccc(F)cc4)CC3)nc2)n1` yielded an RP-LC retention time of 856 s.

For `O=C(NCc1ccccc1Cl)C1CC(=O)N(CCc2c[nH]c3ccc(F)cc23)C1` (stereo not drawn), the RP-LC retention time was 811 s.

For `O=C(C1CCN(c2cnc3nccnc3c2)CC1)N1CCN(C2CCCCC2)CC1`, the RP-LC retention time was 572 s.

Work on `CCOC(=O)CC1(NC(=O)N2CCN(c3nc4ccccc4nc3C(F)(F)F)CC2)CCCCC1` yielded an RP-LC retention time of 1230 s.

`CC(C)C(=O)N1CCc2c(c(C(=O)NCc3ccc4c(c3)OCO4)nn2C)C1` gave an RP-LC retention time of 708 s.

In the case of `COc1ccc(OC)c(CNC(=O)c2cn3c(n2)COCC3)c1`, the RP-LC retention time is reported as 639 s.

`O=C(NCCc1csc(-c2cccs2)n1)C1CCN(S(=O)(=O)c2ccccc2)CC1` showed an RP-LC retention time of 889 s.

Molecule `Cn1cc(-c2ccc(F)cc2)cc1C(=O)N1CCOCC1` has an RP-LC retention time of 811 s.

For `O=C1NCCCCCCN(C(=O)c2cn[nH]c2)[C@H]2CCC[C@@H]12`, the RP-LC retention time was 625 s.

Work on `CC(C)(C)NCC(O)COc1nsnc1N1CCOCC1` (stereo not drawn) yielded an RP-LC retention time of 626 s.

`CCOc1ccc(CNc2nc3ccccc3n2CCN(CC)CC)cc1` gave an RP-LC retention time of 1300 s.

`CCc1cccc(C)c1NC(=O)Cn1c(C)nc2c(sc3nc(-c4ccccc4)ccc32)c1=O` gave an RP-LC retention time of 1110 s.

Molecule `Cc1ccccc1-c1nc(-c2ccc(S(=O)(=O)N3CCOCC3)cc2)no1` has an RP-LC retention time of 1170 s.

Work on `COc1ccc(-c2nc(C3CC(=O)N(c4ccc(F)cc4)C3)no2)cc1` (stereo not drawn) yielded an RP-LC retention time of 961 s.

Work on `NC(=O)c1cccc2[nH]c(-c3ccc(C4CCCN4)cc3F)nc12` (stereo not drawn) yielded an RP-LC retention time of 621 s.

`COC(=O)C1=CN(c2cc(Cl)ccc2OC)c2cc(F)ccc2S1(=O)=O` gave an RP-LC retention time of 909 s.

Work on `O=C(NCCc1csc(-c2ccccc2)n1)C1CCN(S(=O)(=O)c2ccc(Cl)s2)CC1` yielded an RP-LC retention time of 1010 s.

For `O=C(Nc1cc(-c2ccccn2)no1)c1ccc(Cl)cc1`, the RP-LC retention time was 864 s.

Work on `CCOC(=O)c1ccc(NC(=O)COc2cc(C)nc(N3CCCC3)n2)cc1` yielded an RP-LC retention time of 591 s.

Molecule `COc1ccccc1NC(=O)Cn1nc2c(Oc3ccccc3C)nccn2c1=O` has an RP-LC retention time of 839 s.

For `CC(C)N1C(=O)c2cccnc2Sc2cc(NC(=O)c3ccncc3)ccc21`, the RP-LC retention time was 662 s.

With `CN(CCc1noc(-c2ccccc2)n1)C(=O)NCCc1ccccc1` the RP-LC retention time was 896 s.

Molecule `COc1cc(-c2ccc(NC(=O)NC3CC3)c(OC)c2)ccc1NC(=O)NC1CC1` has an RP-LC retention time of 824 s.

For `Fc1cccc(-c2nnc(Cc3nc(-c4ccc(Cl)cc4)no3)o2)c1`, the RP-LC retention time was 1110 s.

Molecule `Cc1nc(C#Cc2cccnc2)cs1` has an RP-LC retention time of 747 s.

For `Cc1cc(C)c(S(=O)(=O)N2CCC(n3cnc4c(C)cccc4c3=O)CC2)cc1C`, the RP-LC retention time was 1120 s.

`CC(Oc1ccc(-c2cnc3ccccc3n2)cc1)C(=O)N1CCN(c2ncccn2)CC1` (stereo not drawn) gave an RP-LC retention time of 872 s.

For `CCCn1cc(CCNS(=O)(=O)c2ccc(F)c(C)c2)c2cccnc21`, the RP-LC retention time was 893 s.

In the case of `Cc1nc(OCC(=O)NCc2cccc(Cl)c2)c2c(C)c(C)oc2n1`, the RP-LC retention time is reported as 929 s.

`O=C(Cn1nc2c3ccccc3ncn2c1=O)Nc1ccc(Cl)cc1` gave an RP-LC retention time of 727 s.

Work on `COc1cccc(-c2noc(C3CC(=O)N(c4cc(C)cc(C)c4)C3)n2)c1OC` (stereo not drawn) yielded an RP-LC retention time of 1020 s.

For `CCCN1CCN(C(=O)C2CCN(S(=O)(=O)c3cc(C(=O)N4CCCC4)n(C)c3)CC2)CC1`, the RP-LC retention time was 574 s.

Work on `O=C(NCCCN1CCOCC1)c1ccc2ccnc(N3CCN(c4ccccc4F)CC3)c2c1` yielded an RP-LC retention time of 595 s.

For `Cc1ccc(-c2cn3c(n2)N(C(=O)c2nc4ncccn4n2)CCC3)cc1`, the RP-LC retention time was 611 s.

`CCOC(=O)c1nn(-c2ccc(F)cc2)c(=O)c2c(NC(=O)C3CCCCC3)scc12` gave an RP-LC retention time of 1250 s.

With `COC(=O)c1c(C)[nH]c(C(=O)N2CCC(CC(=O)NC(c3cccs3)C(C)C)CC2)c1C` (stereo not drawn) the RP-LC retention time was 805 s.

Work on `COCCN(Cc1ccco1)C(=O)Cn1nc(Cc2cccnc2)c2ccccc2c1=O` yielded an RP-LC retention time of 613 s.

With `CCNC(=O)c1sc(Nc2ccc(Cl)cn2)nc1C` the RP-LC retention time was 726 s.
